# From ChEMBL document CHEMBL1649448, “Atorvastatin is a promising partner for antimalarial drugs in treatment of Plasmodium falciparum malaria” (Antimicrob Agents Chemother, 2009)
# Assays:
# Assay type in all cases: functional, organism-based
# [1] = system: Plasmodium falciparum; assay: Antimalarial activity against Plasmodium falciparum IMT 9881 assessed as incorporation of [3H]hypoxanthine after 48 hrs by scintillation counter
# [2] = system: Plasmodium falciparum; assay: Antimalarial activity against Plasmodium falciparum IMT 10336 harboring Pfcrt Q271E mutant gene and Ppcrt I371R mutant gene assessed as incorporation of [3H]hypoxanthine after 48 hrs by scintillation counter
# [3] = system: Plasmodium falciparum; assay: Antimalarial activity against Plasmodium falciparum IMT K4 harboring Ppcrt M74I, N75E, K76T, A220S, Q271E, N326S mutant gene, Pmdr1 S1034C, N1042D mutant gene and Pfmrp H191Y and S437A mutant gene assessed as incorporation of [3H]hypoxanthine after 48 hrs by scintillation counter
# [4] = system: Plasmodium falciparum; assay: (§1) Antimalarial activity against Plasmodium falciparum IMT 8425 harboring Ppcrt I371R mutant gene and Pfnhe-1 ms4760 microsatellite mutant assessed as incorporation of [3H]hypoxanthine after 48 hrs by scintillation counter
# [5] = system: Plasmodium falciparum; assay: Antimalarial activity against Plasmodium falciparum D6 harboring Ppcrt I371R mutant gene assessed as incorporation of [3H]hypoxanthine after 48 hrs by scintillation counter
# [6] = system: Plasmodium falciparum; assay: Antimalarial activity against Plasmodium falciparum IMT Vol assessed as incorporation of [3H]hypoxanthine after 48 hrs by scintillation counter
# [7] = system: Plasmodium falciparum; assay: Antimalarial activity against Plasmodium falciparum IMT 10336 assessed as incorporation of [3H]hypoxanthine after 48 hrs by scintillation counter
# [8] = system: Plasmodium falciparum; assay: as §1, with “Guy” for “8425”, “Ppcrt K76T, A220S, N326D and” for “Ppcrt”, “I371R mutant gene, Pmdr1 T184FN, 1042D and D1246Y, mutant gene and Pfmrp H191Y and S437A” for “I371R”
# [9] = system: Plasmodium falciparum; assay: Antimalarial activity against Plasmodium falciparum PA assessed as incorporation of [3H]hypoxanthine after 48 hrs by scintillation counter
# [10] = system: Plasmodium falciparum; assay: Antimalarial activity against Plasmodium falciparum FCR3 assessed as incorporation of [3H]hypoxanthine after 48 hrs by scintillation counter
# [11] = system: Plasmodium falciparum; assay: Antimalarial activity against Plasmodium falciparum IMT L1 assessed as incorporation of [3H]hypoxanthine after 48 hrs by scintillation counter
# [12] = system: Plasmodium falciparum; assay: Antimalarial activity against Plasmodium falciparum IMT L1 harboring Ppcrt M74I, N75E, K76T, A220S, Q271E mutant gene, Pmdr1 N86Y mutant gene and Pfmrp H191Y and S437A mutant gene assessed as incorporation of [3H]hypoxanthine after 48 hrs by scintillation counter
# [13] = system: Plasmodium falciparum; assay: Antimalarial activity against Plasmodium falciparum IMT Bres harboring Ppcrt M74I, N75E, K76T, A220S, Q271E, N326S and I356T mutant gene, Pmdr1 N86Y mutant gene and Pfmrp H191Y and S437A mutant gene assessed as incorporation of [3H]hypoxanthine after 48 hrs by scintillation counter
# [14] = system: Plasmodium falciparum; assay: Antimalarial activity against Plasmodium falciparum W2 assessed as incorporation of [3H]hypoxanthine after 48 hrs by scintillation counter
# [15] = system: Plasmodium falciparum; assay: Antimalarial activity against Plasmodium falciparum 3D7 harboring Ppcrt I371R mutant gene and Pfnhe-1 ms4760 microsatellite mutant assessed as incorporation of [3H]hypoxanthine after 48 hrs by scintillation counter
# [16] = system: Plasmodium falciparum; assay: Antimalarial activity against Plasmodium falciparum IMT 10500 assessed as incorporation of [3H]hypoxanthine after 48 hrs by scintillation counter
# [17] = system: Plasmodium falciparum; assay: Antimalarial activity against Plasmodium falciparum HB3 assessed as incorporation of [3H]hypoxanthine after 48 hrs by scintillation counter
# [18] = system: Plasmodium falciparum; assay: Antimalarial activity against Plasmodium falciparum IMT K4 assessed as incorporation of [3H]hypoxanthine after 48 hrs by scintillation counter
# [19] = system: Plasmodium falciparum; assay: Antimalarial activity against Plasmodium falciparum 106/1 harboring Ppcrt M74I, N75E, K76T, A220S, Q271E, N326S and I356T mutant gene, Pmdr1 N86Y mutant gene and Pfmrp H191Y and S437A mutant gene assessed as incorporation of [3H]hypoxanthine after 48 hrs by scintillation counter
# [20] = system: Plasmodium falciparum; assay: Antimalarial activity against Plasmodium falciparum PA harboring Ppcrt M74I, N75E, K76T, A220S, Q271E, N326S and I356T mutant gene, Pmdr1 N86Y mutant gene and Pfmrp H191Y and S437A mutant gene assessed as incorporation of [3H]hypoxanthine after 48 hrs by scintillation counter
# [21] = system: Plasmodium falciparum; assay: Antimalarial activity against Plasmodium falciparum IMT Bres assessed as incorporation of [3H]hypoxanthine after 48 hrs by scintillation counter
# [22] = system: Plasmodium falciparum; assay: Antimalarial activity against Plasmodium falciparum 3D7 assessed as incorporation of [3H]hypoxanthine after 48 hrs by scintillation counter
# [23] = system: Plasmodium falciparum; assay: Antimalarial activity against Plasmodium falciparum IMT 31 harboring Ppcrt I371R mutant gene assessed as incorporation of [3H]hypoxanthine after 48 hrs by scintillation counter
# [24] = system: Plasmodium falciparum; assay: Antimalarial activity against Plasmodium falciparum 106/1 assessed as incorporation of [3H]hypoxanthine after 48 hrs by scintillation counter
# [25] = system: Plasmodium falciparum; assay: Antimalarial activity against Plasmodium falciparum IMT K14 harboring Ppcrt M74I, N75E, K76T, A220S, Q271E, N326S mutant gene, Pmdr1 Y184F, S1034C, N1042D, D1246Y mutant gene and Pfmrp H191Y and S437A mutant gene assessed as incorporation of [3H]hypoxanthine after 48 hrs by scintillation counter
# [26] = system: Plasmodium falciparum; assay: Antimalarial activity against Plasmodium falciparum D6 assessed as incorporation of [3H]hypoxanthine after 48 hrs by scintillation counter
# [27] = system: Plasmodium falciparum; assay: Antimalarial activity against Plasmodium falciparum IMT A4 assessed as incorporation of [3H]hypoxanthine after 48 hrs by scintillation counter
# [28] = system: Plasmodium falciparum; assay: Antimalarial activity against Plasmodium falciparum IMT 8425 assessed as incorporation of [3H]hypoxanthine after 48 hrs by scintillation counter
# [29] = system: Plasmodium falciparum; assay: Antimalarial activity against Plasmodium falciparum IMT 16332 harboring Ppcrt M74I, N75E, K76T, A220S, Q271E mutant gene, Pmdr1 N86Y mutant gene assessed as incorporation of [3H]hypoxanthine after 48 hrs by scintillation counter
# [30] = system: Plasmodium falciparum; assay: Antimalarial activity against Plasmodium falciparum FCM29 harboring Ppcrt M74I, N75E, K76T, A220S, Q271E, N326S and I356T mutant gene, Pmdr1 N86Y mutant gene and Pfmrp H191Y and S437A mutant gene assessed as incorporation of [3H]hypoxanthine after 48 hrs by scintillation counter
# [31] = system: Plasmodium falciparum; assay: Antimalarial activity against Plasmodium falciparum IMT Guy assessed as incorporation of [3H]hypoxanthine after 48 hrs by scintillation counter
# [32] = system: Plasmodium falciparum; assay: Antimalarial activity against Plasmodium falciparum IMT K2 harboring Ppcrt M74I, N75E, K76T, A220S, Q271E, N326S mutant gene, Pmdr1 S1034C, N1042D mutant gene and Pfmrp H191Y and S437A mutant gene assessed as incorporation of [3H]hypoxanthine after 48 hrs by scintillation counter
# [33] = system: Plasmodium falciparum; assay: Antimalarial activity against Plasmodium falciparum IMT K14 assessed as incorporation of [3H]hypoxanthine after 48 hrs by scintillation counter
# [34] = system: Plasmodium falciparum; assay: Antimalarial activity against Plasmodium falciparum W2 harboring Ppcrt M74I, N75E, K76T, A220S, Q271E, N326S and I356T mutant gene, Pmdr1 N86Y mutant gene and Pfmrp H191Y and S437A mutant gene assessed as incorporation of [[3H]hypoxanthine after 48 hrs by scintillation counter
# [35] = system: Plasmodium falciparum; assay: Antimalarial activity against Plasmodium falciparum IMT 16332 assessed as incorporation of [3H]hypoxanthine after 48 hrs by scintillation counter
# [36] = system: Plasmodium falciparum; assay: Antimalarial activity against Plasmodium falciparum IMT Vol harboring Ppcrt M74I, N75E, K76T, A220S, Q271E, N326S mutant gene, Pmdr1 N86Y mutant gene and Pfmrp H191Y and S437A mutant gene assessed as incorporation of [3H] hypoxanthine after 48 hrs by scintillation counter
# [37] = system: Plasmodium falciparum; assay: Antimalarial activity against Plasmodium falciparum FCR3 harboring Ppcrt M74I, N75E, K76T, A220S, Q271E, N326S and I356T mutant gene, Pmdr1 N86Y mutant gene and Pfmrp H191Y and S437A mutant gene assessed as incorporation of [3H]hypoxanthine after 48 hrs by scintillation counter
# [38] = system: Plasmodium falciparum; assay: Antimalarial activity against Plasmodium falciparum HB3 harboring Ppcrt I371R mutant gene and Pfmdr1 Y184F mutant gene assessed as incorporation of [3H]hypoxanthine after 48 hrs by scintillation counter
# [39] = system: Plasmodium falciparum; assay: Antimalarial activity against Plasmodium falciparum IMT 10500 harboring Pfcrt Q271E mutant gene and Ppcrt I371R mutant gene and Pfnhe-1 ms4760 microsatellite mutant assessed as incorporation of [3H]hypoxanthine after 48 hrs by scintillation counter
# [40] = system: Plasmodium falciparum; assay: Antimalarial activity against Plasmodium falciparum FCM29 assessed as incorporation of [3H]hypoxanthine after 48 hrs by scintillation counter
# [41] = system: Plasmodium falciparum; assay: Antimalarial activity against Plasmodium falciparum IMT 9881 harboring Ppcrt I371R mutant gene assessed as incorporation of [3H]hypoxanthine after 48 hrs by scintillation counter
# [42] = system: Plasmodium falciparum; assay: Antimalarial activity against Plasmodium falciparum IMT 31 assessed as incorporation of [3H]hypoxanthine after 48 hrs by scintillation counter
# [43] = system: Plasmodium falciparum; assay: Antimalarial activity against Plasmodium falciparum IMT K2 assessed as incorporation of [3H]hypoxanthine after 48 hrs by scintillation counter
structure (smiles),measurement,setting,value
CC(C)c1c(C(=O)Nc2ccccc2)c(-c2ccccc2)c(-c2ccc(F)cc2)n1CC[C@@H](O)C[C@@H](O)CC(=O)O [ATORVASTATIN],IC50,[1],2500 nM
same,IC50,[2],6900 nM
same,IC50,[3],6900 nM
same,IC50,[4],9700 nM
same,IC50,[5],5900 nM
same,IC50,[6],2500 nM
same,IC50,[7],2500 nM
same,IC50,[8],7100 nM
same,IC50,[9],2500 nM
same,IC50,[10],2500 nM
same,IC50,[11],2500 nM
same,IC50,[12],8200 nM
same,IC50,[13],5800 nM
same,IC50,[14],2500 nM
same,IC50,[15],9000 nM
same,IC50,[16],2500 nM
same,IC50,[17],2500 nM
same,IC50,[18],2500 nM
same,IC50,[19],8000 nM
same,IC50,[20],8200 nM
same,IC50,[21],2500 nM
same,IC50,[22],2500 nM
same,IC50,[23],5900 nM
same,IC50,[24],2500 nM
same,IC50,[25],6900 nM
same,IC50,[26],2500 nM
same,IC50,[27],2500 nM
same,IC50,[28],2500 nM
same,IC50,[29],6000 nM
same,IC50,[30],5900 nM
same,IC50,[31],2500 nM
same,IC50,[32],8600 nM
same,IC50,[33],2500 nM
same,IC50,[34],5900 nM
same,IC50,[35],2500 nM
same,IC50,[36],7600 nM
same,IC50,[37],8700 nM
same,IC50,[38],10800 nM
same,IC50,[39],6700 nM
same,IC50,[40],2500 nM
same,IC50,[41],7300 nM
same,IC50,[42],2500 nM
same,IC50,[43],2500 nM
CCCCN(CCCC)CC(O)c1cc(Cl)cc2c1-c1ccc(Cl)cc1/C2=C/c1ccc(Cl)cc1 (stereo not drawn) [LUMEFANTRINE],IC50,[1],8 nM
same,IC50,[6],8 nM
same,IC50,[7],8 nM
same,IC50,[9],8 nM
same,IC50,[10],8 nM
same,IC50,[11],8 nM
same,IC50,[14],8 nM
same,IC50,[16],8 nM
same,IC50,[17],8 nM
same,IC50,[18],8 nM
same,IC50,[21],8 nM
same,IC50,[22],8 nM
same,IC50,[24],8 nM
same,IC50,[26],8 nM
same,IC50,[27],8 nM
same,IC50,[28],8 nM
same,IC50,[31],8 nM
same,IC50,[33],8 nM
same,IC50,[35],8 nM
same,IC50,[40],8 nM
same,IC50,[42],8 nM
same,IC50,[43],8 nM
OC(c1cc(C(F)(F)F)nc2c(C(F)(F)F)cccc12)C1CCCCN1 (stereo not drawn) [MEFLOQUINE],IC50,[1],14 nM
same,IC50,[6],14 nM
same,IC50,[7],14 nM
same,IC50,[9],14 nM
same,IC50,[10],14 nM
same,IC50,[11],14 nM
same,IC50,[14],14 nM
same,IC50,[16],14 nM
same,IC50,[17],14 nM
same,IC50,[18],14 nM
same,IC50,[21],14 nM
same,IC50,[22],14 nM
same,IC50,[24],14 nM
same,IC50,[26],14 nM
same,IC50,[27],14 nM
same,IC50,[28],14 nM
same,IC50,[31],14 nM
same,IC50,[33],14 nM
same,IC50,[35],14 nM
same,IC50,[40],14 nM
same,IC50,[42],14 nM
same,IC50,[43],14 nM
C=C[C@H]1CN2CC[C@H]1C[C@H]2[C@H](O)c1ccnc2ccc(OC)cc12 [QUININE],IC50,[43],48 nM
